Assay results reported in publication PMC5342446, “Healthy CD4^+ T lymphocytes are not affected by targeted therapies against the PI3K/Akt/mTOR pathway in T-cell acute lymphoblastic leukemia” (Oncotarget, 2016).
pIC50: −log10 of the molar value. Residues, ends and D or L forms follow the SMILES beside them. *: point of attachment. Cbz = O=C(OCc1ccccc1)*; CH2F = FC*

Legend:
JURKAT cells = experiment: MTT cell viability assay, JURKAT; assay type: cell-based, human; details: for effect on cell viability, alone: 24 h; for pIC50: Homo sapiens, 48 h, read-out: IC50 values of cells treated for 48 hours
Method: (§1) To determine how these inhibitors could affect the viability of the primary CD4^+ T lymphocytes (both unstimulated and stimulated) and T-ALL cells, we performed MTT assays. […] Except for the unstimulated T lymphocytes, BGT226 and the mTORC1/2 inhibitor Torin-2 turned out to be the most powerful drugs in these cells. For unstimulated T lymphocytes, there was no relevant inhibition for both drugs (IC50 > 2 μM).
(§2) T-acute lymphoblastic leukemia cell lines obtained from Deutsche Sammlung von Mikroorganismen und Zellkulturen GmbH (Braunschweig, Germany). JURKAT and MOLT-4 were maintained in RPMI-1640 medium supplemented with 10% heat-inactivated fetal bovine serum (FBS), 100 units/ml penicillin and […] streptomycin at a density of 0.5 to 2 × 10^6 cells/ml and were incubated at 37°C with 5% CO2.
(§3) MTT (3-[4,5-Dimethylthythiazol-2-yl]-2,5-Diphenyltetrazolium Bromide) assays were performed to assess the sensitivity of cells to drugs, as described.

stimulated T lymphocytes = experiment: MTT cell viability assay, stimulated (phytohemagglutinin) CD4+ T lymphocytes; assay type: cell-based, human; details: for effect on cell viability, alone: 24 h; for pIC50: Homo sapiens, T-lymphocyte, 48 h, read-out: IC50 values of cells treated for 48 hours
Method: as §1
(§4) Peripheral Blood CD4+ T lymphocytes from healthy donors were obtained with informed consent according to institutional guidelines and isolated with Ficoll-Paque and magnetic beads labelling protocols (Dynabeads, Monza MI, Italy). Whole blood or buffy coat were diluted with PBS containing 0.1% BSA and 0.6% Na-citrate or 2 mM EDTA (without Ca2+ and Mg2+) in ratio 1:1. Thirty-five ml of the diluted sample were layered over 15 ml of Ficoll-Paque medium and centrifuged at 600 g for 40 minutes at 20°C. The peripheral blood mononuclear cell (PMNC) layer was transferred to centrifuge tube containing three volumes of PBS and centrifuged at 100 g for 10 minutes at 20°C. This step was repeated twice, supernatant was discarded and cells were suspended in complete RPMI-1640 medium.
(§5) 500 μl PMNC were transferred into a test tube, at a density of 5 × 10^7 cells/ml supplemented with100 μl of heat inactivated FBS and antibody mix and incubated at 4°C for 20 minutes. Followed by addition of 4 ml isolation buffer and centrifuged at 350 g at 4°C for 8 minutes. The supernatant discarded, and the pelleted cells were suspended in 500 μl of isolation buffer, added with 500 μl of pre-warmed dynabeads and incubated for 15 min at 20°C. The cells bound to beads were resuspended using 4 ml isolation buffer. The supernatant containing the human CD4^+ T lymphocytes was obtained by placing the resuspended cells in magnet for 2 minutes. The human CD4^+ T lymphocytes were grown in complete RPMI-1640 medium with 10μg/ml phytohemagglutinin at a density of 1 × 10^6 cells/ml, in a CO2 incubator at 37°C for 24 h.
as §3

MOLT-4 cells = experiment: MTT cell viability assay, MOLT-4; assay type: cell-based, human; details: for pIC50: Homo sapiens, MOLT-4, MTT, 48 h, read-out: IC50 values of cells treated for 48 hours
Method: as §1, §2, §3

[1] = tested on: unstimulated T lymphocytes; experiment: MTT cell viability assay, unstimulated CD4+ T lymphocytes; assay type: cell-based; details: Homo sapiens, T-lymphocyte, 48 h, read-out: IC50 values of cells treated for 48 hours
Method: To determine how these inhibitors could affect the viability of the primary CD4^+ T lymphocytes (both unstimulated and stimulated) and T-ALL cells, we performed MTT assays. Cells were incubated for 48 h with the inhibitors, and then cell survival was analyzed (Figure 2A and Table 1). Except for the unstimulated T lymphocytes, BGT226 and the mTORC1/2 inhibitor Torin-2 turned out to be the most powerful drugs in these cells. For unstimulated T lymphocytes, there was no relevant inhibition for both drugs (IC50 > 2 μM).
as §4, §5, §3

Row | Structure (SMILES) | pIC50 (JURKAT cells) | pIC50 (MOLT-4 cells) | pIC50 [1] | pIC50 (stimulated T lymphocytes) | also measured
1 | Cn1cnc(N)c2ncnc1-2 [3-MA, 3-Methyladenine] |  |  |  |  | effect on cell viability, alone (JURKAT cells; even at 10 μM): did not affect cell viability; effect on cell viability, alone (stimulated T lymphocytes; even at 10 μM): did not affect cell viability
2 | COc1ccc(-c2ccc3ncc4c(c3c2)n(-c2ccc(N3CCNCC3)c(C(F)(F)F)c2)c(=O)n4C)cn1 [BGT226] | 7.10 | 7.22 | < 5.70 | 5.79 | 
3 | CO/C1=C\C(C)=C\[C@@H](C)[C@@H](O)[C@@H](C)C/C(C)=C/C=C/[C@H](OC)[C@@H]([C@@H](C)[C@@H](O)[C@H](C)[C@@]2(O)C[C@@H](O)[C@H](C)[C@@H](C(C)C)O2)OC1=O [Bafilomycin A1] |  |  |  |  | effect on cell viability, alone (JURKAT cells; even at 4 μM): did not affect cell viability; effect on cell viability, alone (stimulated T lymphocytes; even at 4 μM): did not affect cell viability
4 | NC1(c2ccc(-c3nc4ccn5c(=O)[nH]nc5c4cc3-c3ccccc3)cc2)CCC1 [MK-2206] | < 5.70 | 5.80 | < 5.70 | < 5.70 | 
5 | Nc1ccc(-c2ccc3ncc4ccc(=O)n(-c5cccc(C(F)(F)F)c5)c4c3c2)cn1 [Torin-2, 9-(6-aminopyridin-3-yl)-1-(3-(trifluoromethyl)phenyl)benzo[h][1,6]naphthyridin-2(1H)-one] | 7.00 | 7.00 | < 5.70 | 5.74 | 
6 | FC(F)c1nc2ccccc2n1-c1nc(N2CCOCC2)nc(N2CCOCC2)n1 [ZSTK474] | 6.02 | 6.28 | < 5.70 | < 5.70 | 
7 | COC(=O)C[C@H](NC(=O)[C@H](C)NC(=O)[C@@H](NC(=O)OCc1ccccc1)C(C)C)C(=O)CF [z-VAD-fmk] (Cbz-Val-Ala-Asp(OMe)-CH2F) |  |  |  |  | effect on cell viability, alone (MOLT-4 cells; MOLT-4, alone, 25 μM, 24 h, MTT): no relevant effect on cell viability; effect on cell viability, alone (stimulated T lymphocytes; 25 μM): no relevant effect on cell viability
